Tested on: MIA PaCa-2 cells
Assay: Bru-seq analysis for nascent RNA synthesis (log2FC of genes, GSEA gene sets)
Format: cell-based, human
Conditions: 4 h, MIA PaCa-2 cells
[1] = top upregulated protein-coding genes
[2] = upregulated gene sets, HALLMARK

`Cc1cc(NC(=O)c2cnc(N3CCNCC3)cn2)c2ncccc2c1` [J28, N-(6-methylquinolin-8-yl)-5-(piperazin-1-yl)pyrazine-2-carboxamide] was tested, and the “log2FC UAP1L1” value [1] was 1.26, the “log2FC ZC3H12A” value [1] was 1.27 and the “ES AMUNDSON_GAMMA_RADIATION_RESPONSE” value (upregulated gene sets, C2) was 0.673. The “ES BANDRES_RESPONSE_TO_CARMUSTIN_MGMT_48HR_DN” value (upregulated gene sets, C2) was 0.612, the “ES CAMPS_COLON_CANCER_COPY_NUMBER_UP” value (upregulated gene sets, C2) was 0.653 and the “ES DACOSTA_UV_RESPONSE_VIA_ERCC3_UP” value (upregulated gene sets, C2) was 0.506. The “ES DAIRKEE_TERT_TARGETS_UP” value (upregulated gene sets, C2) was 0.528, the “ES DEBIASI_APOPTOSIS_BY_REOVIRUS_INFECTION_DN” value (upregulated gene sets, C2) was 0.488 and the “ES DIRMEIER_LMPl_RESPONSE_EARLY” value (upregulated gene sets, C2) was 0.670. For the same molecule, the “ES ENK_UV_RESPONSE_KERATINOCYTE_UP” value (upregulated gene sets, C2) was 0.501, the “ES FERREIRA_EWINGS_SARCOMA_UNSTABLE_VS_STABLE_DN” value (upregulated gene sets, C2) was 0.623 and the “ES GINESTIER_BREAST_CANCER_ZNF217_AMPLIFIED_DN” value (upregulated gene sets, C2) was 0.481. The “ES HORTON_SREBF_TARGETS” value (upregulated gene sets, C2) was 0.807, the “ES KEGG_SYSTEMIC_LUPUS_ERYTHEMATOSUS” value (upregulated gene sets, C2) was 0.661 and the “ES KIM_ALL_DISORDERS_DURATION_CORR_DN” value (upregulated gene sets, C2) was 0.615. For the same molecule, the “ES LEONARD_HYPDXIA” value (upregulated gene sets, C2) was 0.716, the “ES MARTENS_TRETINOIN_RESPONSE_UP” value (upregulated gene sets, C2) was 0.552 and the “ES NIKOLSKY_BREAST_CANCER_16P13_AMPLICON” value (upregulated gene sets, C2) was 0.699. The “ES NIKOLSKY_BREAST_CANCER_16Q24_AMPLICON” value (upregulated gene sets, C2) was 0.706, the “ES QI_HYPOXIA” value (upregulated gene sets, C2) was 0.559 and the “ES REACTOME_AMYLOIDS” value (upregulated gene sets, C2) was 0.710. For the same molecule, the “ES REACTOME_CHOLESTEROL_BIOSYNTHESIS” value (upregulated gene sets, C2) was 0.821, the “ES REACTOME_PEPTIDE_CHAIN_ELONGATION” value (upregulated gene sets, C2) was 0.564 and the “ES REACTOME_RNA_POL_I_PROMOTER_OPENING” value (upregulated gene sets, C2) was 0.769. For the same molecule, the “ES REACTOME_RNA_POL_I_TRANSCRIPTION” value (upregulated gene sets, C2) was 0.622, the “ES RICKMAN_METASTASIS_DN” value (upregulated gene sets, C2) was 0.556 and the “ES SCHMIDT_POR_TARGETS_IN_LIMB_BUD_UP” value (upregulated gene sets, C2) was 0.788. The “NES AMUNDSON_GAMMA_RADIATION_RESPONSE” value (upregulated gene sets, C2) was 2.280, the “NES BANDRES_RESPONSE_TO_CARMUSTIN_MGMT_48HR_DN” value (upregulated gene sets, C2) was 2.308 and the “NES CAMPS_COLON_CANCER_COPY_NUMBER_UP” value (upregulated gene sets, C2) was 2.238. For the same molecule, the “NES DACOSTA_UV_RESPONSE_VIA_ERCC3_UP” value (upregulated gene sets, C2) was 2.272, the “NES DAIRKEE_TERT_TARGETS_UP” value (upregulated gene sets, C2) was 2.400 and the “NES DEBIASI_APOPTOSIS_BY_REOVIRUS_INFECTION_DN” value (upregulated gene sets, C2) was 2.211. For the same molecule, the “NES DIRMEIER_LMPl_RESPONSE_EARLY” value (upregulated gene sets, C2) was 2.238, the “NES ENK_UV_RESPONSE_KERATINOCYTE_UP” value (upregulated gene sets, C2) was 2.338 and the “NES FERREIRA_EWINGS_SARCOMA_UNSTABLE_VS_STABLE_DN” value (upregulated gene sets, C2) was 2.223. For the same molecule, the “NES GINESTIER_BREAST_CANCER_ZNF217_AMPLIFIED_DN” value (upregulated gene sets, C2) was 2.203, the “NES HORTON_SREBF_TARGETS” value (upregulated gene sets, C2) was 2.353 and the “NES KEGG_SYSTEMIC_LUPUS_ERYTHEMATOSUS” value (upregulated gene sets, C2) was 2.294. For the same molecule, the “NES KIM_ALL_DISORDERS_DURATION_CORR_DN” value (upregulated gene sets, C2) was 2.457, the “NES LEONARD_HYPDXIA” value (upregulated gene sets, C2) was 2.369 and the “NES MARTENS_TRETINOIN_RESPONSE_UP” value (upregulated gene sets, C2) was 2.244. For the same molecule, the “NES NIKOLSKY_BREAST_CANCER_16P13_AMPLICON” value (upregulated gene sets, C2) was 2.231, the “NES NIKOLSKY_BREAST_CANCER_16Q24_AMPLICON” value (upregulated gene sets, C2) was 2.371 and the “NES QI_HYPOXIA” value (upregulated gene sets, C2) was 2.230. The “NES REACTOME_AMYLOIDS” value (upregulated gene sets, C2) was 2.374, the “NES REACTOME_CHOLESTEROL_BIOSYNTHESIS” value (upregulated gene sets, C2) was 2.387 and the “NES REACTOME_PEPTIDE_CHAIN_ELONGATION” value (upregulated gene sets, C2) was 2.220. For the same molecule, the “NES REACTOME_RNA_POL_I_PROMOTER_OPENING” value (upregulated gene sets, C2) was 2.411, the “NES REACTOME_RNA_POL_I_TRANSCRIPTION” value (upregulated gene sets, C2) was 2.250 and the “NES RICKMAN_METASTASIS_DN” value (upregulated gene sets, C2) was 2.370. For the same molecule, the “NES SCHMIDT_POR_TARGETS_IN_LIMB_BUD_UP” value (upregulated gene sets, C2) was 2.303, the “ES HALLMARK_ADIPOGENESIS” value [2] was 0.383 and the “ES HALLMARK_ANDROGEN_RESPONSE” value [2] was 0.356. For the same molecule, the “ES HALLMARK_APICAL_JUNCTION” value [2] was 0.359, the “ES HALLMARK_APOPTOSIS” value [2] was 0.390 and the “ES HALLMARK_BILE_ACID_METABOLISM” value [2] was 0.361. The “ES HALLMARK_CHOLESTEROL_HOMEOSTASIS” value [2] was 0.656, the “ES HALLMARK_COAGULATION” value [2] was 0.474 and the “ES HALLMARK_DNA_REPAIR” value [2] was 0.336. For the same molecule, the “ES HALLMARK_ESTROGEN_RESPONSE_EARLY” value [2] was 0.354, the “ES HALLMARK_ESTROGEN_RESPONSE_LATE” value [2] was 0.335 and the “ES HALLMARK_FATTY_ACID_METABOLISM” value [2] was 0.392. For the same molecule, the “ES HALLMARK_GLYCOLYSIS” value [2] was 0.321, the “ES HALLMARK_HEME_METABOLISM” value [2] was 0.367 and the “ES HALLMARK_HYPOXIA” value [2] was 0.479. The “ES HALLMARK_MTORC1_SIGNALING” value [2] was 0.436, the “ES HALLMARK_MYOGENESIS” value [2] was 0.560 and the “ES HALLMARK_NOTCH_SIGNALING” value [2] was 0.494. For the same molecule, the “ES HALLMARK_OXIDATIVE_PHOSPHORYLATION” value [2] was 0.351, the “ES HALLMARK_P53_PATHWAY” value [2] was 0.471 and the “ES HALLMARK_PEROXISOME” value [2] was 0.379. The “ES HALLMARK_PI3K_AKT_MTOR_SIGNALING” value [2] was 0.426, the “ES HALLMARK_UNFOLDED_PROTEIN_RESPONSE” value [2] was 0.433 and the “ES HALLMARK_UV_RESPONSE_UP” value [2] was 0.436. For the same molecule, the “ES HALLMARK_WNT_BETA_CATENIN_SIGNALING” value [2] was 0.481, the “ES HALLMARK_XENOBIOTIC_METABOLISM” value [2] was 0.348 and the “NES HALLMARK_ADIPOGENESIS” value [2] was 1.653. The “NES HALLMARK_ANDROGEN_RESPONSE” value [2] was 1.381, the “NES HALLMARK_APICAL_JUNCTION” value [2] was 1.422 and the “NES HALLMARK_APOPTOSIS” value [2] was 1.615. For the same molecule, the “NES HALLMARK_BILE_ACID_METABOLISM” value [2] was 1.330, the “NES HALLMARK_CHOLESTEROL_HOMEOSTASIS” value [2] was 2.374 and the “NES HALLMARK_COAGULATION” value [2] was 1.628. For the same molecule, the “NES HALLMARK_DNA_REPAIR” value [2] was 1.407, the “NES HALLMARK_ESTROGEN_RESPONSE_EARLY” value [2] was 1.458 and the “NES HALLMARK_ESTROGEN_RESPONSE_LATE” value [2] was 1.358. For the same molecule, the “NES HALLMARK_FATTY_ACID_METABOLISM” value [2] was 1.605, the “NES HALLMARK_GLYCOLYSIS” value [2] was 1.363 and the “NES HALLMARK_HEME_METABOLISM” value [2] was 1.548. The “NES HALLMARK_HYPOXIA” value [2] was 1.984, the “NES HALLMARK_MTORC1_SIGNALING” value [2] was 1.917 and the “NES HALLMARK_MYOGENESIS” value [2] was 2.098. For the same molecule, the “NES HALLMARK_NOTCH_SIGNALING” value [2] was 1.473, the “NES HALLMARK_OXIDATIVE_PHOSPHORYLATION” value [2] was 1.548 and the “NES HALLMARK_P53_PATHWAY” value [2] was 1.986. The “NES HALLMARK_PEROXISOME” value [2] was 1.483, the “NES HALLMARK_PI3K_AKT_MTOR_SIGNALING” value [2] was 1.634 and the “NES HALLMARK_UNFOLDED_PROTEIN_RESPONSE” value [2] was 1.739. For the same molecule, the “NES HALLMARK_UV_RESPONSE_UP” value [2] was 1.773, the “NES HALLMARK_WNT_BETA_CATENIN_SIGNALING” value [2] was 1.483 and the “NES HALLMARK_XENOBIOTIC_METABOLISM” value [2] was 1.415.

From patent US20220081412A1, “QUINOLINYL-PYRAZINE-CARBOXAMIDE COMPOUNDS AND USES THEREOF” (The Regents of the University of Michigan, priority 2018, published 2022)
